In patent US4868303A, “Bis-dioxopiperazine derivatives” (Zenyaku Kogyo Kabushiki Kaisha, priority 1986, dated 1989):

Tests used:
[1] = Acute toxicity (LD50); conditions: mouse, in vivo, ip; intraperitoneal, suspended in saline with 1% HPC, observed 14 days
Protocol: The acute toxicity of the compounds of the present invention was examined by the following test.
The test group to which the compound of the present invention was administered consisted of five mice. Six weeks old male mice (ddY, 30±2 g of body weight) were employed as test animals.

[2] = system: P388 lymphocytic leukemia; test: Growth inhibition of tumor cells of P388 lymphocytic leukemia in vitro; assay type: cell-based, mouse (CDF1); conditions: Mus musculus, 48 hours at 37° C., read-out: 50% Inhibitory concentration of cell growth (IC50)
Protocol: (I) Growth Inhibition of Tumor Cells of P388 Lymphocytic Leukemia in Vitro:
Tumor cells were collected aseptically with capillary tube from ascites in CDF1 female mice transplanted intraperitoneally with 1×10^6cells of P388 lymphocytic leukemia 5 days before. Cell suspension was prepared at 5×10^4 cells/0.5 ml in a RPMI1640 medium supplemented with 10% fetal calf serum, kanamycin (0.1 mg/ml) and 2-hydroxyethyldisulfide (0.01 mM). Each test sample was dissolved or suspended in the medium at a concentration of 1×10^-1 -1×10^-5 mM.
A test tube with Molton stopper loosely involving 0.5 ml each of the cell suspension and the sample suspension was kept for 48 hours at 37° C. in an incubator supplied with air containing 5% carbon dioxide. […] The cells harvested therefrom was counted by using of a Coulter Counter and the inhibition of cell growth was calculated by the following formula:
Growth Inhibition (%)=(1-T/C)×100
T: number of cells in the culture containing test sample
C: number of cells in the culture of control

[3] = system: P388 lymphocytic leukemia; test: Increase in life span on P388 lymphocytic leukemia tumor-transplanted mouse; assay type: in vivo, mouse (CDF1); conditions: P388, ip, 24 h, daily dose 2.3 mg/kg, intraperitoneal, day 1 and 5th day after transplantation, read-out: Rate of increase in life span (ILS)
Protocol: (III) Increase in Life Span on P388 Lymphocytic Leukemia Tumor-transplantedMouse:
The treated group to which the test sample was administered consisted of seven mice, while the control group consisted of ten mice. Six weeks old male mice (CDF1, 25±2 g of body weight) were employed as host animals.
Tumor cells (1.0×10^6) of P388 lymphocytic leukemia were transplanted intraperitoneally into each mouse. The treatment was effected one day after the transplantation and on 5th day by administering prescribed dose of each test sample intraperitoneally to the mice.
Antitumor activity of the test sample was evaluated by the rate of increase in life span (ILS) which was calculated with the following formula.
T': median survival time of treated mice
C': median survival time of control mice

[4] = system: V79 cells; test: Inhibitory effect on colony formation of V79 cells in vitro; assay type: cell-based, Chinese hamster; conditions: Cricetulus griseus, 96 hours with sample, read-out: 90% inhibitory concentration (IC90)
Protocol: (II) Inhibitory effect on Colony Formation of V79 Cells in Vitro:
V79 cells established from Chinese hamster lung fibroblastoma were cultured routinely on plastic dishes (.phi. 60 mm) in RPMI 1640 medium supplemented with 10% fetal calf serum and kanamycin (0.1 mg/ml). Each confluent culture was then trypsinized by the addition of 1 ml of trypsin-EDTA solution (supplied by the firm GIBCO) for 5 minutes at 37° C. in an incubator supplied with humidified air containing 5% CO2.
Homogeneous suspension of V79 cells thus obtained was diluted to 100, 200 and 400 viable cells/ml with the medium, and 1 ml each of them was transferred to other plastic dishes (.phi. 60 mm) containing 1.85 ml of the medium, and diluted to 100, 200 and 400 viable cells/dish.
Each test sample was dissolved in DMSO at the concentration of 20 mM and diluted with the medium to the final concentration of 2×10^-3 -2×10^-10 mM.
Each test dish was kept for 24 hours at 37° C. in an incubator supplied with humidified air containing 5% CO2, and was further cultured for 96 hours after 150 μl of the sample solution was added thereto.
The cells were gently washed once with Mg- and Ca-free phosphate-buffered saline [PBS(-)] and fixed with 1 ml of 3.5% HCHO-PBS(-) solution for 2 hours, then stained with a crystal violet ethanol solution.
The 90% inhibitory concentration (IC90) was calculated by comparing the number of visible colonies on the sample dish with that on the control dish.

Question: With `Cc1cccc(C(=O)OCN2C(=O)CN([C@@H](C)[C@@H](C)N3CC(=O)NC(=O)C3)CC2=O)c1` (relative stereo) [Sample 14, erythro-2-[4-(3-toluoyloxmethyl)-3,5-dioxopiperazin-1-yl]-3-(3,5-dioxopiperazine-1-yl)butane] as the molecule, how does the LD50 at 336 h [1] read?
Answer: 6.7 to 10 mg/kg

Question: And the IC50 [2]?
Answer: 13 nM

Question: And the ILS at 2.3 mg/kg [3]?
Answer: 199%

Question: And the IC90 [4]?
Answer: 0.051 nM
